Laboratory results: patent publication US9428542B2, “Lupane triterpenoid derivatives and pharmaceutical use thereof” (priority 2012, dated 2016)
Where two headings read alike, the source gives them in different places.

How the values were obtained:
[1] = tested on: HIV-1IIIB; experiment: HIV-1 full replication assay (HIV-1IIIB-infected MT-2 cells, supernatant read out on TZM-bl cells, β-Gal); format: cell-based
Description: The antiviral activity of the compounds of the present invention was determined in a HIV-1 full replication assay.
In this assay, MT-2 cells that are infected with HIV-1IIIB were co-cultured with different concentration of the tested compounds for 3 days and then supernatant is transferred into new 384-well plates containing TZM-bl cells (also called JC53-bl). TZM-bl cells that could be infected by various kinds of HIV-1 strains stably express a great amount of HIV-1 receptor, co-receptor CD4 molecular, and co-receptor CXCR4 and CCR5. TZM-bl cells harbor LTR-luciferase and β-gal two report genes. The expression of luciferase and β-gal reporter directed by HIV-1 LTR can be activated by Tat protein generated after HIV infection, and the quantity of expression is proportional to the quantity of HIV-1. Compounds that interfere with virus replication in MT-2 cells, maturation of the virus, or post-entry steps in the HIV lifecycle decrease the luciferase signal or β-gal signal. In this experiment, BVM (Bevirimat, PA-457) is used as a positive control drug.
Method for Inhibiting HIV-1 Replication Assay:
The MT-2 cells are infected at a Multiciplicity (MOI) of 0.01 TCID50, and then the MT-2 cells suspension was diluted to a needed concentration. 90 μl of the MT-2 cells suspension from above was added into 384-well plates containing 10 μl of the tested compounds.
Compounds were dissolved in DMSO and tested as 11 points 3-fold serial dilutions. After addition of cells to compound plates, plates were placed to humidified 5% CO2 37 incubator for 3 days. 10 μl of cells culture supernatant from the incubated plates was transferred into new black 384-well plates.
Adjusted the TZMb1 cells concentration and 40 μl of TZMb1 cells was added into each well in the black 384-well plates. After addition of the TZMb1 cells to the black plates, black plates were placed to humidified 5% CO2 37 incubator for 24 h, then β-Gal activity was measured.
The anti viral activity %=(measured number-lowest mean number)/(highest mean number-lowest mean number)×100. The IC50 values were calculated by Median Equation and the IC curve was generated by Graphpad Prism V 5.03.
(§1) TC50 is referred to the toxicity in MT-2 cells by the compounds tested at 50% concentration; IC50 is referred to the inhibiting HIV-1IIIB replication in MT-2 cells by the compounds tested at 50% concentration; Therapeutic Index (TI)=TC50/IC50.

[2] = tested on: MT-2 cells; experiment: Compounds' cytotoxicity assay in MT-2 cells (CellTiter-Glo); format: cell-based; design: unit not given here; conditions: toxicity in MT-2 cells, 3 days
Description: 3. Method for Compounds' Cytotoxicity Assay:
The MT-2 cells are diluted to a needed concentration. 90 μl of the MT-2 cells suspension was added into 384-well plates containing 10 μl of the tested compounds. Compounds were dissolved in DMSO and tested as 11 points 3-fold serial dilutions. After addition of cells to compound plates, plates were placed to humidified 5% CO2 37 incubator for 3 days. The Luciferase activity was measured by CellTiter-Glo® Luminescent Cell Viability Assay kit (Promega Corp., WI, USA).
as §1

[3] = Human immunodeficiency virus 1, MT2, 72 h, inhibiting HIV-1IIIB replication in MT-2 cells, 3 days, read-out: IC50 (PM)
[4] = Human immunodeficiency virus 1, MT2, HIV replication in MT-2 cell (HIV-1IIIB) assay, read-out: IC50

Compound | IC50 [1, 3] | TC50 (PM) [2] | other results
CC(C)C1=C2[C@H]3CC[C@@H]4[C@@]5(C)CC[C@H](OC(=O)CC(C)(C)C(=O)O)C(C)(C)[C@@H]5CC[C@@]4(C)[C@]3(C)CC[C@@]2(Cc2nnc(-c3ccc(Cl)cn3)o2)CC1=O [Compound 22-3] | 1.6 nM | 36 | –
CC(C)C1=C2[C@H]3CC[C@@H]4[C@@]5(C)CC[C@H](OC(=O)CC(C)(C)C(=O)O)C(C)(C)[C@@H]5CC[C@@]4(C)[C@]3(C)CC[C@@]2(c2nnc(-c3ccc(Cl)cc3)o2)CC1=O [Compound 27-1] | 3.3 nM | 50 | –
CC(C)C1=C2[C@H]3CC[C@@H]4[C@@]5(C)CC[C@H](OC(=O)CC(C)(C)C(=O)O)C(C)(C)[C@@H]5CC[C@@]4(C)[C@]3(C)CC[C@@]2(Cc2nnc(-c3ccc(Cl)cc3)o2)CC1=O [Compound 22-1] | 3.3 nM | 46 | –
CC(C)C1=C2[C@H]3CC[C@@H]4[C@@]5(C)CC[C@H](OC(=O)CC(C)(C)C(=O)O)C(C)(C)[C@@H]5CC[C@@]4(C)[C@]3(C)CC[C@@]2(Nc2nnc(-c3ccc(Cl)cn3)o2)CC1=O [Compound 141-2] | 0.26 nM | 24 | –
CC(C)C1=C2[C@H]3CC[C@@H]4[C@@]5(C)CC[C@H](OC(=O)CC(C)(C)C(=O)O)C(C)(C)[C@@H]5CC[C@@]4(C)[C@]3(C)CC[C@@]2([C@@H](O)c2nnc(-c3ccc(Cl)cc3)n2CCN)CC1=O [Compound 164-1] | – | – | IC50 [1, 4]: < 2 nM
CC(C)C1=C2[C@H]3CC[C@@H]4[C@@]5(C)CC[C@H](OC(=O)CC(C)(C)C(=O)O)C(C)(C)[C@@H]5CC[C@@]4(C)[C@]3(C)CC[C@@]2([C@H](O)c2nnc(-c3ccc(Cl)cc3)o2)CC1=O [Compound 127-2] | 25 nM | 45 | –
CC(C)C1=C2[C@H]3CC[C@@H]4[C@@]5(C)CC[C@H](OC(=O)CC(C)(C)C(=O)O)C(C)(C)[C@@H]5CC[C@@]4(C)[C@]3(C)CC[C@@]2(Cc2nnc(-c3ccc(F)cn3)o2)CC1=O [Compound 22-18] | 1.7 nM | 48 | –
CNC(=O)Cn1c(=O)cc([C@@]23CC[C@]4(C)[C@H](CC[C@@H]5[C@@]6(C)CC[C@H](OC(=O)CC(C)(C)C(=O)O)C(C)(C)[C@@H]6CC[C@]54C)C2=C(C(C)C)C(=O)C3)n1C [Compound 91-7] | 0.7 nM | 68 | –
CC(C)C1=C2[C@H]3CC[C@@H]4[C@@]5(C)CC[C@H](OC(=O)CC(C)(C)C(=O)O)C(C)(C)[C@@H]5CC[C@@]4(C)[C@]3(C)CC[C@@]2([C@H](O)c2nnc(-c3ccc(Cl)cn3)o2)CC1=O [Compound 127-4] | 38 nM | 200 | –
CC(C)C1=C2[C@H]3CC[C@@H]4[C@@]5(C)CC[C@H](OC(=O)CC(C)(C)C(=O)O)C(C)(C)[C@@H]5CC[C@@]4(C)[C@]3(C)CC[C@@]2(c2nnc(Cc3ccc(Cl)cc3)o2)CC1=O [Compound 38] | 1.6 nM | 100 | –
CC(C)C1=C2[C@H]3CC[C@@H]4[C@@]5(C)CC[C@H](OC(=O)CC(C)(C)C(=O)O)C(C)(C)[C@@H]5CC[C@@]4(C)[C@]3(C)CC[C@@]2(c2nnc(-c3ccc(Cl)cc3)s2)CC1=O [Compound 102] | 175 nM | 9.93 | –
CC(C)C1=C2[C@H]3CC[C@@H]4[C@@]5(C)CC[C@H](OC(=O)CC(C)(C)C(=O)O)C(C)(C)[C@@H]5CC[C@@]4(C)[C@]3(C)CC[C@@]2(c2nnc(-c3ccc(Cl)cn3)o2)CC1=O [Compound 27-3] | 1.5 nM | 36 | –
CC(C)C1=C2[C@H]3CC[C@@H]4[C@@]5(C)CC[C@H](OC(=O)CC(C)(C)C(=O)O)C(C)(C)[C@@H]5CC[C@@]4(C)[C@]3(C)CC[C@@]2(c2cc(=O)n(CCN(C)C)n2C)CC1=O [Compound 91-4] | – | – | IC50 [1, 4]: < 2 nM
CC(C)C1=C2[C@H]3CC[C@@H]4[C@@]5(C)CC[C@H](OC(=O)CC(C)(C)C(=O)O)C(C)(C)[C@@H]5CC[C@@]4(C)[C@]3(C)CC[C@@]2(c2cc(=O)n(CC(=O)N(C)C)n2C)CC1=O [Compound 91-8] | 3.3 nM | 48 | –
CC(C)C1=C2[C@H]3CC[C@@H]4[C@@]5(C)CC[C@H](OC(=O)CC(C)(C)C(=O)O)C(C)(C)[C@@H]5CC[C@@]4(C)[C@]3(C)CC[C@@]2(c2cc(=O)n(-c3ccc(Cl)cc3)n2CCN(C)C)CC1=O [Compound 156-1] | ≤ 0.17 nM | 19 | –
CC(C)C1=C2[C@H]3CC[C@@H]4[C@@]5(C)CC[C@H](OC(=O)CC(C)(C)C(=O)O)C(C)(C)[C@@H]5CC[C@@]4(C)[C@]3(C)CC[C@@]2(c2cc(=O)n(CC(N)=O)n2C)CC1=O [Compound 91-6] | 2 nM | 48 | –
CC(C)C1=C2[C@H]3CC[C@@H]4[C@@]5(C)CC[C@H](OC(=O)CC(C)(C)C(=O)O)C(C)(C)[C@@H]5CC[C@@]4(C)[C@]3(C)CC[C@@]2(Cc2nnc(-c3ccc(C#N)cn3)o2)CC1=O [Compound 22-15] | 2.1 nM | 34 | –
CC(C)C1=C2[C@H]3CC[C@@H]4[C@@]5(C)CC[C@H](OC(=O)CC(C)(C)C(=O)O)C(C)(C)[C@@H]5CC[C@@]4(C)[C@]3(C)CC[C@@]2(c2cc(=O)n(CC(=O)O)n2C)CC1=O [Compound 91-5] | – | 160 | IC50 (PM) ([1]; inhibiting HIV-1IIIB replication in MT-2 cells, 3 days): 2110 nM
CC(C)C1=C2[C@H]3CC[C@@H]4[C@@]5(C)CC[C@H](OC(=O)CC(C)(C)C(=O)O)C(C)(C)[C@@H]5CC[C@@]4(C)[C@]3(C)CC[C@@]2(c2cc(=O)n(Cc3ccc(Cl)cc3)n2C)CC1=O [91′-1] | – | 22 | –
CC(C)C1=C2[C@H]3CC[C@@H]4[C@@]5(C)CC[C@H](OC(=O)CC(C)(C)C(=O)O)C(C)(C)[C@@H]5CC[C@@]4(C)[C@]3(C)CC[C@@]2([C@@H](O)c2nnc(-c3ccc(Cl)cc3)n2CCN(C)C)CC1=O [Compound 165-1] | – | – | IC50 [1, 4]: < 2 nM
CC(C)C1=C2[C@H]3CC[C@@H]4[C@@]5(C)CC[C@H](OC(=O)CC(C)(C)C(=O)O)C(C)(C)[C@@H]5CC[C@@]4(C)[C@]3(C)CC[C@@]2(c2cc(=O)n(CCN(C)C)n2C)CC1 [Compound 89-3] | – | – | IC50 [1, 4]: < 5 nM
C=C(C)[C@@H]1CC[C@]2(C(=O)O)CC[C@]3(C)[C@H](CC[C@@H]4[C@@]5(C)CC[C@H](OC(=O)CC(C)(C)C(=O)O)C(C)(C)[C@@H]5CC[C@]43C)[C@@H]12 [BVM, Bevirimat, reference compound] | – | – | IC50 ([1]; Human immunodeficiency virus 1, MT2, 72 h, read-out: IC50 (PM)): 5 nM
CC(C)C1=C2[C@H]3CC[C@@H]4[C@@]5(C)CC[C@H](OC(=O)CC(C)(C)C(=O)O)C(C)(C)[C@@H]5CC[C@@]4(C)[C@]3(C)CC[C@@]2(c2c(Cl)c(=O)n(-c3ccc(Cl)cc3)n2CCN)CC1=O [Compound 155-2] | – | – | IC50 [1, 4]: < 2 nM
CC(C)C1=C2[C@H]3CC[C@@H]4[C@@]5(C)CC[C@H](OC(=O)CC(C)(C)C(=O)O)C(C)(C)[C@@H]5CC[C@@]4(C)[C@]3(C)CC[C@@]2(c2c(Cl)c(=O)n(-c3ccc(Cl)cc3)n2CCN(C)C)CC1=O [Compound 156-2] | – | – | IC50 [1, 4]: < 2 nM
CC(C)C1=C2[C@H]3CC[C@@H]4[C@@]5(C)CC[C@H](OC(=O)CC(C)(C)C(=O)O)C(C)(C)[C@@H]5CC[C@@]4(C)[C@]3(C)CC[C@@]2(c2c(Cl)c(=O)n(-c3ccc(Cl)cc3)n2C)CC1=O [Compound 98-8] | – | – | IC50 [1, 4]: < 2 nM
CC(C)C1=C2[C@H]3CC[C@@H]4[C@@]5(C)CC[C@H](OC(=O)CC(C)(C)C(=O)O)C(C)(C)[C@@H]5CC[C@@]4(C)[C@]3(C)CC[C@@]2(c2cc(=O)n(Cc3ccc(Cl)cc3)n2C)CC1=O [Compound 91-1] | – | 41 | –
